Test results reported in patent US4746672A, “Oxides of 1,2,5-thiadiazoles, their use in pharmaceutical compositions” (ICI Americas Inc., priority 1982, dated 1988).
Where a name gives a salt, the structure may show the parent alone.

Target: T1, histamine H-2 receptor (Oryctolagus cuniculus, UniProt G1TWL8)
T1 construct: The mixture of glands and cells is collected by centrifugation; from tissue; host or cells: dispersed gastric glands and cells (parietal cells) from gastric mucosa of New Zealand white rabbit
T1 sequence (G1TWL8 1-367): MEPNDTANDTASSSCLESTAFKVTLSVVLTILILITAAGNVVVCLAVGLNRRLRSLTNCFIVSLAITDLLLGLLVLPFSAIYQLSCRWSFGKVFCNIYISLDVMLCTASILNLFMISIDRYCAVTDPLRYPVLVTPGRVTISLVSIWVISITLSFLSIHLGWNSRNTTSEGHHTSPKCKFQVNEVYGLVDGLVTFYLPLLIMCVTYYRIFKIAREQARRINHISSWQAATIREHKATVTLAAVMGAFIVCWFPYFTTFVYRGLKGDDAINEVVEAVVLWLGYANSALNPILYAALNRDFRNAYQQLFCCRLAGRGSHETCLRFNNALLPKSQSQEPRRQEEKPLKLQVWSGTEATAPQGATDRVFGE
Test: aminopyrine test: inhibition of histamine-induced uptake of aminopyrine into the acid space of parietal cells
Format: cell-based, New Zealand white rabbit
Details: rabbit gastric mucosa glands/cells; uptake stimulated by histamine 10^-5 M and ICI 63197 5×10^-7 M; read-out: concentration giving 50% inhibition of uptake of aminopyrine
Protocol: The aminopyrine test is carried out as follows:
Gastric mucosa from the New Zealand white rabbit is removed from the underlying muscle and washed in Buffer 1 which contains per liter: NaCl (8.007 g.), KCl (0.201 g.), Na2 HPO4 (0.113 g.), KH2 PO4 (0.204 g.), CaCl2.2H2 O (0.132 g.) MgCl2 (0.101 g.) and glucose (1 g.), adjusted to pH 7.4 with NaOH. The tissue is finely chopped, suspended in Buffer 1 and washed three times with Buffer 1. The tissue is then suspended in a dispersion medium of collagenase (Sigma Chemical Co., Type V; 100 mg.) and bovine serum albumin (Miles Laboratories Ltd., Fraction V; 100 mg.) in Buffer 1 (100 ml.) at 50 ml. per 10 g. net weight of tissue and incubated at 30° C. and pH 7.4 maintained by continuous monitoring, with stirring under an oxygen atmosphere. After 30 minutes the tissue is allowed to settle and the supernatant liquid is removed. Fresh dispersion medium (50 ml. per 10 g. wet weight of tissue) is added and incubation is continued with the tissue being largely dispersed into glands and whole cells after 40-60 minutes. Any remaining large pieces of tissue are removed by filtration through nylon mesh. […] The C^14 aminopyrine retained by the tissue is measured on a scintillation counter and the degree of inhibition of uptake by the test compound is calculated by reference to a control sample. […]

- IC50: < 3 µM
SMILES: NC(=NCC(F)(F)F)Nc1nc(CSCCNc2n[s+]([O-])nc2N)cs1 (stereo not shown) [Example 1, 3-amino-4-[2-(2-[2,2,2-trifluoroethyl]guanidino)thiazol-4-ylmethylthio]ethylamino-1,2,5-thiadiazole 1-oxide maleate]
